Our source for the IC50 values is US20120220577A1, “GLYCINE B ANTAGONISTS” (Merz Pharma GmbH & Co KgaA, priority 2009, published 2012).

For experiment [1], the target named is T1, glycine binding pocket of the NMDA receptor (Rattus norvegicus, UniProt P35439).
T1 construct: For isolation of the cell membranes, the cortices are homogenized; from tissue; host or cells: rat cerebral cortex membranes (male Sprague-Dawley)
Description: [3H]MDL-105,519 displacement studies (rat cortical membranes). Here is the method:
Anaesthetised male Sprague-Dawley rats (200-250 g, Janvier, Le Genest-Isle, France) are decapitated and their brains removed rapidly. […] For isolation of the cell membranes, the cortices are homogenized in 20 volumes of ice-cold 0.32 M sucrose (Sigma-Aldrich, Taufkirchen, Germany) using a glass-Teflon homogenizer. The homogenate is centrifuged at 1000×g for 10 minutes, the pellet is discarded and the supernatant centrifuged at 20,000×g for 20 minutes. The resulting pellet is re-suspended in 20 volumes of distilled water and centrifuged for 20 minutes at 8000×g. The supernatant and the buffy coat are then centrifuged three times (48,000×g for 20 minutes) in the presence of 50 mM Tris-HCl, pH 8.0 (assay buffer). All centrifugation steps are carried out at 4° C. After resuspension in 5 volumes of 50 mM Tris-HCl, pH 7.5, the membrane suspension is frozen rapidly at −80° C. On the day of assay, the membranes are thawed and washed four times by resuspension in 50 mM Tris-HCl, pH 7.5, and centrifugation at 48,000×g for 20 minutes. The final pellet is suspended in assay buffer. […] The final protein concentration used for our studies is 400 μg/ml.
A robotic system designed for binding assays (Tecan Deutschland GmbH, Crailsheim, Germany) is loaded with the membrane solution, solutions for bound control (buffer/DMSO 20%), unlabeled glycine (1 mM) for evaluation of non-specific binding, all compounds to be tested (at 20-fold concentrations), radioligand and respective 96-well plates.
The protein/receptor concentration is held constant whereas the amount of specific bound radioligand is determined using increasing concentrations of ligand.
Firstly, the assay plates are loaded with membrane solution and are shaken at 4° C. The mother plates are then prepared by pipetting the compounds into assay buffer/20% DMSO to obtain the desired final concentrations (dose response curve with five different concentrations, e.g. 10, 3, 1, 0.3, and 0.1 μM). After transferring radioligand into the assay plates, the compounds are added (including the bound and the non-specific binding control). The final DMSO concentration is 1%. The assay plates are incubated and shaken at 4° C. for 1 h, before the mixture is exhausted as rapidly as possible via a vacuum manifold using the Multiscreen HTS glass fibre (type B) filter plates (Millipore, Schwalbach, Germany) under a constant vacuum of 450 mbar. The membranes are washed four times with cold assay buffer ([…]). 50 μL of Ultima Gold scintillation cocktail (PerkinElmer, Rodgau-Jügesheim, Germany) is added to the wet filter plates and incubated at room temperature overnight before counting the disintegration per minutes using a liquid scintillation counter (MicroBeta, PerkinElmer, Rodgau-Jügesheim, Germany).
The residual radioactivity after displacement of the test compound (n=5) is then corrected with respect to the set controls.

Experiment [2] addresses NMDA receptor glycine B site (Rattus norvegicus, UniProt P35439). Description: Calcium FLIPR studies, rat cortical neurons (NMDA/D-Serine induced intracellular calcium). Format: cell-based. Details: Primary neurons are prepared from cortices of embryonal rats at day 17 of pregnancy; endogenous in cells; host or cells: primary rat cortical neurons (E17, 11-13 DIV). The procedure:
Antagonistic potencies of the test compounds are functionally evaluated using electrophysiological whole cell patch-clamp recordings and/or fluorometric intracellular Ca^2+-imaging (FLIPR) screens.
Sprague-Dawley rat embryos (E 17) are decapitated and neocortices are dissected, trypsinized and carefully triturated. The cell suspension is plated on poly-D-lysine pre-coated 96-well Plates (Greiner, Frickenhausen, Germany) at a cell density of 55.000 cells/well. The neurons are cultivated in Neurobasal media containing B27-Supplement and […] L-Glutamine (Biochrom) at 37° C. in a humidified atmosphere of 5% CO2/95% air. Medium is exchanged completely at day 4 and to 50% on day 7. At the time of experiments neurons are 11-13 days in vitro.
The increase of intracellular calcium after stimulation with 30 μM NMDA and 1 μM D-Serine is measured using the fluorometric imaging plate reader (FLIPR) and the Calcium-4-Kit (both Molecular Devices, Ismaning, Germany). Prior to addition of agonist or antagonist (5 different concentrations, n=5) the medium is aspirated and cells are washed once before loading with 150 μL of loading buffer (1 h at room temperature), consisting of Ca-4 sensitive dye reconstituted in extracellular bath solution, pH 7.3. Subsequently, plates are transferred to FLIPR to detect increases in intracellular calcium after the addition of agonist, measured as relative fluorescence units (RFU). Antagonists are pre-incubated with the cells for 10 min at room temperature before the addition of the agonist and co-agonist.
The fluorescence signal increase after addition of agonist reflects the increase of intracellular calcium. Inconsistencies in the amount of cells per well are normalised by using the spatial uniformity correction of the FLIPR software (Screenworks, Molecular Devices). The mean of replicated temporal data (n=5) is calculated and used for graphical representation. For the evaluation of the antagonistic potency, the calcium changes in response to different concentrations of antagonist are determined using an area under the curve (AUC) calculation. All responses (RFU-values) are determined as percentage of control (=maximum response at 30 μM NMDA and 1 μM D-Serine). IC50 values are calculated according the four parameter logistic equation using GraFit (Erithacus Software).
(In general: Calcium assays in cells follow changes in intracellular calcium, usually with a dye or a luminescent sensor.)

The mark [3] stands for this setting: displacement of 2 nM [3H]-MDL-105,519, rat cortical membranes, read-out: NMDA-MDL 105519-r-CTX - IC50.
The mark [4] stands for this setting: rat cortical neurons, stimulation with 30 μM NMDA and 1 μM D-Serine, antagonist pre-incubated 10 min, read-out: NMDA-FLIPR-rCTX-NAM - IC50.

Where two headings read alike, the source gives them in different places.

For `O=C(COc1cc(C(=O)O)cc2cc(Cl)cc(Cl)c12)NCc1cccc(CO)c1` [Example 22, 5,7-Dichloro-4-[(3-hydroxymethylbenzylcarbamoyl)-methoxy]-naphthalene-2-carboxylic acid], the IC50 (commonly the concentration at which inhibition is half-maximal) in experiment [1] (setting [3]) was found to be 236 nM; in experiment [2] (setting [4]), 5.4 µM.
On the same counts, the results for `O=C(O)c1cc(OC2CCN(c3ccccc3)C2=O)c2c(Cl)cc(Cl)cc2c1` (stereo not drawn) [Example 65, 5,7-Dichloro-4-(2-oxo-1-phenyl-pyrrolidin-3-yloxy)-naphthalene-2-carboxylic acid] are 1390 nM and 7.54 µM.
Regarding `O=C(COc1cc(C(=O)O)cc2cc(Cl)cc(Cl)c12)Nc1ccc(Cc2nnn[nH]2)cc1` [Example 86, 5,7-Dichloro-4-{[4-(1H-tetrazol-5-ylmethyl)-phenylcarbamoyl]-methoxy}-naphthalene-2-carboxylic acid], the IC50 was 1840 nM in experiment [1] (setting [3]) and 5.75 µM in experiment [2] (setting [4]).
Regarding `CC(Oc1cc(C(=O)O)cc2cc(Cl)cc(Cl)c12)C(=O)Nc1ccccc1CO` (stereo not drawn) [Example 17, 5,7-Dichloro-4-[1-(2-hydroxymethylphenylcarbamoyl)-ethoxy]-naphthalene-2-carboxylic acid], the IC50 was 1190 nM in experiment [1] and 12.6 µM in experiment [2].
`Cc1ccc(S(=O)(=O)NC(=O)COc2cc(C(=O)O)cc3cc(Cl)cc(Cl)c23)cc1` [Example 36, 5,7-Dichloro-4-[2-oxo-2-(toluene-4-sulfonylamino)-ethoxy]-naphthalene-2-carboxylic acid]: the IC50 in experiment [1] (setting [3]) came out at 1520 nM; in experiment [2] (setting [4]), 5.47 µM.
On the same counts, the results for `COCC(Oc1cc(C(=O)O)cc2cc(Cl)cc(Cl)c12)C(=O)Nc1ccccc1` (stereo not drawn) [Example 67, 5,7-Dichloro-4-(2-methoxy-1-phenylcarbamoyl-ethoxy)-naphthalene-2-carboxylic acid] are 1370 nM and 6.49 µM.
Take `O=C(O)c1cc(OCC(=O)N2Cc3ccccc3CC2C(=O)O)c2c(Cl)cc(Cl)cc2c1` (stereo not drawn) [Example 38, 2-[2-(3-Carboxy-6,8-dichloronaphthalen-1-yloxy)-acetyl]-1,2,3,4-tetrahydroisoquinoline-3-carboxylic acid]: the half-maximal inhibitory concentration (IC50) in experiment [1] (setting [3]) amounted to 1350 nM; in experiment [2] (setting [4]), 10.6 µM.
As to `CC(Oc1cc(C(=O)O)cc2cc(Cl)cc(Cl)c12)C(=O)Nc1ccc(CO)cc1` (stereo not drawn) [Example 16, 5,7-Dichloro-4-[1-(4-hydroxymethylphenylcarbamoyl)-ethoxy]-naphthalene-2-carboxylic acid], the 50% inhibitory concentration (IC50) was determined as 690 nM in experiment [1] (setting [3]) and 4.66 µM in experiment [2] (setting [4]).
On the same counts, the results for `NCc1ccc(OCC(=O)O)c(NC(=O)COc2cc(C(=O)O)cc3cc(Cl)cc(Cl)c23)c1` [Example 79, 4-[(5-Aminomethyl-2-carboxymethoxy-phenylcarbamoyl)-methoxy]-5,7-dichloro-naphthalene-2-carboxylic acid] are 89 nM and 1.65 µM.
As for `CC(Oc1cc(C(=O)O)cc2cc(Cl)cc(Cl)c12)C(=O)Nc1cccc(CO)c1` (stereo not drawn) [Example 25, 5,7-Dichloro-4-[1-(3-hydroxymethylphenylcarbamoyl)-ethoxy]-naphthalene-2-carboxylic acid], the figures for the IC50 in experiment [1] (setting [3]) and in experiment [2] (setting [4]) were 1030 nM and 7.32 µM, respectively.
For `O=C(COc1cc(C(=O)O)cc2cc(Cl)cc(Cl)c12)Nc1ccccc1Cc1nnn[nH]1` [Example 100, 5,7-Dichloro-4-{[2-(1H-tetrazol-5-ylmethyl)-phenylcarbamoyl]-methoxy}-naphthalene-2-carboxylic acid], in that order: 559 nM and 4.1 µM.
With `O=C(COc1cc(C(=O)O)cc2cc(Cl)cc(Cl)c12)NCc1cccnc1` [Example 104, 5,7-Dichloro-4-{[(pyridin-3-ylmethyl)-carbamoyl]-methoxy}-naphthalene-2-carboxylic acid], the values for the concentration for half-maximal inhibition (IC50) in experiment [1] (setting [3]) and in experiment [2] (setting [4]) were 186 nM and 1.39 µM, respectively.
For `O=C(O)c1cc(OCC(=O)N2CCc3ccccc3C2)c2c(Cl)cc(Cl)cc2c1` [Example 52, 5,7-Dichloro-4-[2-(3,4-dihydro-1H-isoquinolin-2-yl)-2-oxo-ethoxy]-naphthalene-2-carboxylic acid], in that order: 2290 nM and 7.35 µM.
As for `O=C(COc1cc(C(=O)O)cc2cc(Cl)cc(Cl)c12)Nc1cccc(-c2nnn[nH]2)c1` [Example 101, 5,7-Dichloro-4-{[3-(1H-tetrazol-5-yl)-phenylcarbamoyl]-methoxy}-naphthalene-2-carboxylic acid], the figures for the half-maximal inhibitory concentration (IC50) in experiment [1] (setting [3]) and in experiment [2] (setting [4]) were 344 nM and 2.27 µM, respectively.
For `O=C(COc1cc(C(=O)O)cc2cc(Cl)cc(Cl)c12)Nc1cccc(OCc2nnn[nH]2)c1` [Example 92, 5,7-Dichloro-4-{[3-(1H-tetrazol-5-ylmethoxy)-phenylcarbamoyl]-methoxy}-naphthalene-2-carboxylic acid], in that order: 656 nM and 3.84 µM.
Regarding `COC(=O)c1ccccc1NC(=O)COc1cc(C(=O)O)cc2cc(Cl)cc(Cl)c12` [Example 45, 5,7-Dichloro-4-[(2-methoxycarbonyl-phenylcarbamoyl)-methoxy]-naphthalene-2-carboxylic acid], the half-inhibitory concentration (IC50) in experiment [1] (setting [3]) was determined as 4270 nM.
Same read-out and setting: then `O=C(COc1cc(C(=O)O)cc2cc(Cl)cc(Cl)c12)Nc1cccc2cc(C(=O)O)oc12` [Example 115, 7-[2-(3-Carboxy-6,8-dichloro-naphthalen-1-yloxy)-acetylamino]-benzofuran-2-carboxylic acid], with 7 nM.
On the same count and under the same terms, for `O=C(COc1cc(C(=O)O)cc2cc(Cl)cc(Cl)c12)Nc1cccnc1` [Example 127, 5,7-Dichloro-4-(pyridin-3-ylcarbamoylmethoxy)-naphthalene-2-carboxylic acid] the value was 499 nM; for `O=C(COc1cc(C(=O)O)cc2cc(Cl)cc(Cl)c12)Nc1ccccn1` [Example 129, 5,7-Dichloro-4-(pyridin-2-ylcarbamoylmethoxy)-naphthalene-2-carboxylic acid], 980 nM; for `O=C(COc1cc(C(=O)O)cc2cc(Cl)cc(Cl)c12)Nc1cccc(CO)c1` [Example 10, 5,7-Dichloro-4-[(3-hydroxymethylphenylcarbamoyl)-methoxy]-naphthalene-2-carboxylic acid], 351 nM.
Same read-out and setting: then `CNC(=O)COc1cc(CN)ccc1NC(=O)COc1cc(C(=O)O)cc2cc(Cl)cc(Cl)c12` [Example 116, 4-[(4-Aminomethyl-2-methylcarbamoylmethoxy-phenylcarbamoyl)-methoxy]-5,7-dichloro-naphthalene-2-carboxylic acid], with 297 nM.
